What was measured:
urokinase = urokinase (Homo sapiens, UniProt P00749); test: biochemical
Source text: The optimal concentration of arginine can be approximated by its apparent Ki value for inhibition of urokinase as calculated from a Dixon plot. Dixon, M, Biochem. J., 55, 170-171 (1953). […] It is preferred that the concentration of arginine chosen will maximally saturate the urokinase molecule and confer a protective effect against the previously discussed over reduction of the disulfide bridges.

[1] = Urokinase amidolytic activity assay with chromogenic substrate S-2444; format: biochemical; settings: isolated derivative
Protocol: The reduction of the three disulfide bridges can be monitored, for example, by assays of the amidolytic activity of the urokinase, by titration of the available SH groups, or by reverse phase chromatography of the reduced urokinase. Preferably, the reduction is monitored by assaying the gain or loss of amidolytic activity of the urokinase.
Approximately 1 to 2 mg/ml of the UK23 solution, in 0.1M phosphate (pH 7), was diluted with 1 volume of 0.5M arginine in water (pH 7). The reducing agent DTT, from a fresh stock solution of 1M in water, was added to adjust the final DTT concentration to 10 mM. […] The absorbance increase at 406 nm was monitored over a five minute period. One enzyme unit was defined as an increase in absorbance at 406 nm of 1 unit per minute.

Work on `N=C(N)NCCC[C@H](N)C(=O)O` [arginine] yielded a Ki (urokinase) of 70 mM.
For “GPRP-Amino hexanoic acid-LKFQCGQK Urokinase Derivative [Example 1]”, the “amidolytic activity, % of the initial UK23 value” ([1]; repeated procedures) was 80% to 100.
In the case of “Heparin-LKFQCGQK Urokinase Derivative [Example 4]”, the “active (amidolytic activity of resulting derivative)” value [1] is reported as 100%.
